From patent US12780800B1, “Triazole-pyridinyl substituted azacyclohexyl acetic acid compounds as LPA receptor antagonists” (Viva Star Biosciences Limited, priority 2021, dated 2022)

Target: T1, LPA1 (Homo sapiens, UniProt Q92633)
T1 construct: ProLink (PK) beta-galactosidase enzyme-fragment tag; host or cells: CHO-K1
Assay: LPA1 calcium flux assay (LPA1 functional antagonist assay)
Format: cell-based
Conditions: PathHunter CHO-K1 EDG2 β-Arrestin cell line; calcium indicator dye; stimulated with EC80 concentration of LPA; FLIPR Tetra
Method in brief: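 The LPA1 antagonist readout was intracellular calcium flux, and IC50 values were calculated from it. Plates stood 30 min at RT after compound addition. Cells, grown overnight, had first taken up calcium dye over 45 min at 37 °C.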

T1 sequence (Q92633 whole entry, the tested form may be a part): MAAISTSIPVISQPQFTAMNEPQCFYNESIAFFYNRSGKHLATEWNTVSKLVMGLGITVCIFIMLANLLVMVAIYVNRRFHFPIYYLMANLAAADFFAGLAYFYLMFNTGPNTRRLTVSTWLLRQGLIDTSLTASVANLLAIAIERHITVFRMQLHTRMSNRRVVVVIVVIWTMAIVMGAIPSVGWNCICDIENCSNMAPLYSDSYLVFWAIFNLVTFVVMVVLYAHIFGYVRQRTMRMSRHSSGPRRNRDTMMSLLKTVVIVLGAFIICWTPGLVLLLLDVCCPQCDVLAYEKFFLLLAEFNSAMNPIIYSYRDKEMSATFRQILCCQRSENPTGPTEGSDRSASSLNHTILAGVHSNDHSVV

IC50 [nM] | SMILES
> 5000 | CCCc1ccc(=O)n(Cc2c(-c3ccc(N4CC(CC(=O)O)CCC4=O)c(CC)n3)nnn2C)c1 (single isomer, unassigned) [Example 54, (R) or (S)-2-(1-(2-ethyl-6-(1-methyl-5-((2-oxo-5-propylpyridin-1(2H)-yl)methyl)-1H-1,2,3-triazol-4-yl)pyridin-3-yl)-6-oxopiperidin-3-yl)acetic acid]
< 100 | Cc1nc(-c2nnn(C)c2COc2cc(-n3cccn3)ncn2)ccc1N1CCC[C@H](CC(=O)O)C1 [Example 85, (R)-2-(1-(6-(5-(((6-(1H-pyrazol-1-yl)pyrimidin-4-yl)oxy)methyl)-1-methyl-1H-1,2,3-triazol-4-yl)-2-methylpyridin-3-yl)piperidin-3-yl)acetic acid]
> 5000 | CCc1nc(-c2nnn(C)c2COc2nccc(C3CCC3)n2)ccc1N1CC(CC(=O)O)CCC1=O (single isomer, unassigned) [Example 91, (R) or (S)-2-(1-(6-(5-(((4-cyclobutylpyrimidin-2-yl)oxy)methyl)-1-methyl-1H-1,2,3-triazol-4-yl)-2-ethylpyridin-3-yl)-6-oxopiperidin-3-yl)acetic acid]
100 to 500 | CCc1nc(-c2nnn(C)c2Cn2nnc(CC3CC3)n2)ccc1N1C[C@@H](CC(=O)O)CC(F)(F)C1 [Example 137, 2-[(3S)-1-[6-(5-{[5-(cyclopropylmethyl)-2H-1,2,3,4-tetrazol-2-yl]methyl}-1-methyl-1H-1,2,3-triazol-4-yl)-2-ethylpyridin-3-yl]-5,5-difluoropiperidin-3-yl]acetic acid]
500 to 5000 | Cc1nc(-c2nnn(C)c2COc2nccc(C3CC3)n2)ccc1N1C[C@@H](CC(=O)O)CC(F)(F)C1 [Example 75, (S)-2-(1-(6-(5-(((4-cyclopropylpyrimidin-2-yl)oxy)methyl)-1-methyl-1H-1,2,3-triazol-4-yl)-2-methylpyridin-3-yl)-5,5-difluoropiperidin-3-yl)acetic acid]
100 to 500 | CCCN(C)C(=O)OCc1c(-c2ccc(CN3CC(C(=O)O)CC(F)(F)C3)c(CC)n2)nnn1C (single isomer, unassigned) [Example 165, 1-((2-ethyl-6-(1-methyl-5-(((methyl(propyl)carbamoyl)oxy)methyl)-1H-1,2,3-triazol-4-yl)pyridin-3-yl)methyl)-5,5-difluoropiperidine-3-carboxylic acid]
< 100 | Cn1nnc(-c2ccc(N3CCC[C@H](CC(=O)O)C3)c(C(F)F)n2)c1Cn1ncc(CC2CC2)n1 [Example 167, (R)-2-(1-(6-(5-((4-(cyclopropylmethyl)-2H-1,2,3-triazol-2-yl)methyl)-1-methyl-1H-1,2,3-triazol-4-yl)-2-(difluoromethyl)pyridin-3-yl)piperidin-3-yl)acetic acid]
500 to 5000 | Cc1nc(-c2nnn(C)c2Cn2ccc(CC3CC3)c(C)c2=O)ccc1N1C[C@@H](CC(=O)O)CC(F)(F)C1 [Example 2, (S)-2-(1-(6-(5-((4-(cyclopropylmethyl)-3-methyl-2-oxopyridin-1(2H)-yl)methyl)-1-methyl-1H-1,2,3-triazol-4-yl)-2-methylpyridin-3-yl)-5,5-difluoropiperidin-3-yl)acetic acid]
100 to 500 | Cc1nc(-c2nnn(C)c2COC(=O)N(C)CC2CC2)ccc1N1C[C@@H](CC(=O)O)CC(F)(F)C1 [Example 140, (S)-2-(1-(6-(5-((((cyclopropylmethyl)(methyl)carbamoyl)oxy)methyl)-1-methyl-1H-1,2,3-triazol-4-yl)-2-methylpyridin-3-yl)-5,5-difluoropiperidin-3-yl)acetic acid]
100 to 500 | CCc1nc(-c2nnn(C)c2Cn2nnnc2CC2CC2)ccc1N1C[C@@H](CC(=O)O)CC(F)(F)C1 [Example 138, 2-[(3S)-1-[6-(5-{[5-(cyclopropylmethyl)-1H-1,2,3,4-tetrazol-1-yl]methyl}-1-methyl-1H-1,2,3-triazol-4-yl)-2-ethylpyridin-3-yl]-5,5-difluoropiperidin-3-yl]acetic acid]
> 5000 | CCc1nc(-c2nnn(C)c2Cn2ccc(C#CC3CC3)cc2=O)ccc1N1C[C@@H](CC(=O)O)CC(F)(F)C1 [Example 20, (S)-2-(1-(6-(5-((4-(cyclopropylethynyl)-2-oxopyridin-1(2H)-yl)methyl)-1-methyl-1H-1,2,3-triazol-4-yl)-2-ethylpyridin-3-yl)-5,5-difluoropiperidin-3-yl)acetic acid]
> 5000 | CCCc1ccc(=O)n(Cc2c(-c3ccc(N4CCC[C@@H](CC(=O)O)C4)c(C#N)n3)nnn2C)c1 [Example 51, (S)-2-(1-(2-cyano-6-(1-methyl-5-((2-oxo-5-propylpyridin-1(2H)-yl)methyl)-1H-1,2,3-triazol-4-yl)pyridin-3-yl)piperidin-3-yl)acetic acid]
100 to 500 | Cc1nc(-c2nnn(C)c2COC(=O)N(C)C2CCC2)ccc1N1C[C@@H](CC(=O)O)CC(F)(F)C1 [Example 142, (S)-2-(1-(6-(5-(((cyclobutyl(methyl)carbamoyl)oxy)methyl)-1-methyl-1H-1,2,3-triazol-4-yl)-2-methylpyridin-3-yl)-5,5-difluoropiperidin-3-yl)acetic acid]
< 100 | CCc1nc(-c2nnn(C)c2Cn2cc(CC(C)C)n(C)c2=O)ccc1N1C[C@H](CC(=O)O)CC(F)(F)C1 (stereo in doubt) [Example 66, 2-[(3R)-1-[2-ethyl-6-(1-methyl-5-{[3-methyl-4-(2-methylpropyl)-2-oxo-2,3-dihydro-1H-imidazol-1-yl]methyl}-1H-1,2,3-triazol-4-yl)pyridin-3-yl]-5,5-difluoropiperidin-3-yl]acetic acid]
500 to 5000 | CCc1nc(-c2nnn(C)c2CN2C[C@H](CC3CC3)OC2=O)ccc1N1C[C@H](CC(=O)O)CC(F)(F)C1 (stereo in doubt) [Example 69, 2-((R)-1-(6-(5-(((S)-5-(cyclopropylmethyl)-2-oxooxazolidin-3-yl)methyl)-1-methyl-1H-1,2,3-triazol-4-yl)-2-ethylpyridin-3-yl)-5,5-difluoropiperidin-3-yl)acetic acid]
100 to 500 | CCCc1ccc(=O)n(Cc2c(-c3ccc(CN4CC(C(=O)O)CC(F)(F)C4)c(C)n3)nnn2C)c1 (single isomer, unassigned) [Example 156, (S) or (R)-5,5-difluoro-1-((2-methyl-6-(1-methyl-5-((2-oxo-5-propylpyridin-1(2H)-yl)methyl)-1H-1,2,3-triazol-4-yl)pyridin-3-yl)methyl)piperidine-3-carboxylic acid]
100 to 500 | CCCc1ccc(=O)n(Cc2c(-c3ccc(N4C[C@@H](CC(=O)O)CC(F)(F)C4)c(CC)n3)cnn2C)c1 [Example 41, (S)-2-(1-(2-ethyl-6-(1-methyl-5-((2-oxo-5-propylpyridin-1(2H)-yl)methyl)-1H-pyrazol-4-yl)pyridin-3-yl)-5,5-difluoropiperidin-3-yl)acetic acid]
500 to 5000 | CCc1nc(-c2nnn(C)c2Cn2cc(N3CCC3)ccc2=O)ccc1N1C[C@@H](CC(=O)O)CC(F)(F)C1 [Example 27, (S)-2-(1-(6-(5-((5-(azetidin-1-yl)-2-oxopyridin-1(2H)-yl)methyl)-1-methyl-1H-1,2,3-triazol-4-yl)-2-ethylpyridin-3-yl)-5,5-difluoropiperidin-3-yl)acetic acid]
500 to 5000 | CCCc1ccc(=O)n(Cc2c(-c3ccc(N4CCCC(CC(=O)O)C4=O)c(CC)n3)nnn2C)c1 (single isomer, unassigned) [Example 52, (R) or (S)-2-(1-(2-ethyl-6-(1-methyl-5-((2-oxo-5-propylpyridin-1(2H)-yl)methyl)-1H-1,2,3-triazol-4-yl)pyridin-3-yl)-2-oxopiperidin-3-yl)acetic acid]
500 to 5000 | CCCN(C)C(=O)OCc1c(-c2ccc(N3CCC[C@H](CC(=O)O)C3)c(C)n2)nnn1C [Example 144, (R)-2-(1-(2-methyl-6-(1-methyl-5-(((methyl(propyl)carbamoyl)oxy)methyl)-1H-1,2,3-triazol-4-yl)pyridin-3-yl)piperidin-3-yl)acetic acid]
100 to 500 | CCc1nc(-c2nnn(C)c2COc2nccc(C3CCC3)n2)ccc1N1CCCC(CC(=O)O)C1=O (single isomer, unassigned) [Example 93, (R) or (S)-2-(1-(6-(5-(((4-cyclobutylpyrimidin-2-yl)oxy)methyl)-1-methyl-1H-1,2,3-triazol-4-yl)-2-ethylpyridin-3-yl)-2-oxopiperidin-3-yl)acetic acid]
> 5000 | CCCn1ccc(=O)c(OCc2c(-c3ccc(N4C[C@@H](CC(=O)O)CC(F)(F)C4)c(CC)n3)nnn2C)n1 [Example 111, (S)-2-(1-(2-ethyl-6-(1-methyl-5-(((4-oxo-1-propyl-1,4-dihydropyridazin-3-yl)oxy)methyl)-1H-1,2,3-triazol-4-yl)pyridin-3-yl)-5,5-difluoropiperidin-3-yl)acetic acid]
> 5000 | CCc1nc(-c2nnn(C)c2COc2noc(C3CC3)n2)ccc1N1CC(CC(=O)O)CC(F)(F)C1 (stereo in doubt) [Example 114, (R)-2-(1-(6-(5-(((5-cyclopropyl-1,2,4-oxadiazol-3-yl)oxy)methyl)-1-methyl-1H-1,2,3-triazol-4-yl)-2-ethylpyridin-3-yl)-5,5-difluoropiperidin-3-yl)acetic acid]
< 100 | CCCc1ccc(=O)n(Cc2c(-c3ccc(N4CCC[C@H](CC(=O)O)C4)c(C(F)F)n3)nnn2C)c1 [Example 60, (R)-2-(1-(2-(difluoromethyl)-6-(1-methyl-5-((2-oxo-5-propylpyridin-1(2H)-yl)methyl)-1H-1,2,3-triazol-4-yl)pyridin-3-yl)piperidin-3-yl)acetic acid]
< 100 | CCc1nc(-c2nnn(C)c2Cn2cc(CC3CC3)ccc2=O)ccc1N1C[C@@H](CC(=O)O)CC(F)(F)C1 [Example 13, (S)-2-(1-(6-(5-((5-(cyclopropylmethyl)-2-oxopyridin-1(2H)-yl)methyl)-1-methyl-1H-1,2,3-triazol-4-yl)-2-ethylpyridin-3-yl)-5,5-difluoropiperidin-3-yl)acetic acid]
